Assay results as given in US6586425B2, “Cytoskeletal active agents for glaucoma therapy” (Wisconsin Alumni Research Foundation, priority 1996, dated 2003).
Like-named read-outs stand apart in the source and are kept apart here.

Experiments:
[1] = tested on: ciliary muscle-disinserted monkey eyes; assay: Outflow facility in ciliary muscle-disinserted eyes; format: in vivo, cynomolgus and rhesus monkeys
living monkey eye = format: in vivo, cynomolgus monkeys (Macaca fascicularis); conditions: for (LAT-B/BL)/(Veh/BL) / Facility LAT-B/Vehicle / Facility, LAT-B eye: 2 hr wait
[2] = LAT-B 0.8 μg topical, 0-30 min, n=5
[3] = LAT-B 0.8 μg topical, 30-60 min, n=5
[4] = LAT-B 0.8 μg topical, 60-90 min, n=5
[5] = LAT-B 4.0 μg topical, 0-30 min, n=5
[6] = LAT-B 4.0 μg topical, 30-60 min, n=5
[7] = LAT-B 4.0 μg topical, 60-90 min, n=5

## C/C1=C/C(=O)O[C@@H]2C[C@@H](CC[C@H](C)/C=C\C=C\CC1)O[C@@](O)([C@@H]1CSC(=O)N1)C2 [LAT-A]
[1]; Lat-A 5.0 μM
  facility increase, control (non-disinserted) eyes: 328±35%
[1]; Lat-A 5.0 μM OU, n=9
  Facility PRx, CM Dis eye: 0.65 ± 0.23 μl/min/mmHg
  Facility PRx, CM Dis/Cont: 0.43 ± 0.15
  Facility PRx, Cont (non-disinserted, drug-treated) eye: 1.51 ± 0.30 μl/min/mmHg
  PRx/BL, CM Dis eye: 4.53 ± 1.29
  PRx/BL, CM Dis/Cont: 1.06 ± 0.27
  PRx/BL, Cont (non-disinserted, drug-treated) eye: 4.28 ± 0.35
[1]; Lat-A 5.0 μM, n=9
  facility increase, ciliary muscle-disinserted eyes: 353±129%

## C/C1=C/C(=O)O[C@@H]2C[C@@H](CC[C@H](C)/C=C\CC1)O[C@@](O)([C@@H]1CSC(=O)N1)C2 [LAT-B]
Living monkey eye; 2 hr after LAT-B 4.0 μg topical, n=5
  initial post-drug facility increase over final baseline value: 173±73%
Living monkey eye; LAT-B 0.8 μg Top, n=5
  PRxf (final post-drug) facility, LAT-B eye: 1.54 ± 0.33 μl min^−1 mmHg^−1
  PRxf facility, LAT-B/Veh: 2.82 ± 1.22
  PRxf/BLf, LAT-B eye: 3.78 ± 0.70
  PRxf/BLf, LAT-B/Veh: 2.12 ± 0.64
  PRxf/PRxi, LAT-B eye: 3.41 ± 0.73
  PRxf/PRxi, LAT-B/Veh: 1.50 ± 0.28
  PRxi (first post-drug) facility, LAT-B eye: 0.47 ± 0.08 μl min^−1 mmHg^−1
  PRxi facility, LAT-B/Veh: 1.65 ± 0.38
  PRxi/BLf, LAT-B eye: 1.16 ± 0.11
  PRxi/BLf, LAT-B/Veh: 1.36 ± 0.16
Living monkey eye; [2]
  (LAT-B/BL)/(Veh/BL): 1.84
  Facility LAT-B/Vehicle: 2.30
  Facility, LAT-B eye: 0.80 μl min^−1 mmHg^−1
Living monkey eye; [3]
  (LAT-B/BL)/(Veh/BL): 2.59
  Facility LAT-B/Vehicle: 3.37
  Facility, LAT-B eye: 1.35 μl min^−1 mmHg^−1
Living monkey eye; [4]
  (LAT-B/BL)/(Veh/BL): 2.37
  Facility LAT-B/Vehicle: 3.14
  Facility, LAT-B eye: 1.50 μl min^−1 mmHg^−1
Living monkey eye; LAT-B 0.8 μg topical, n=5, p=NS
  facility increase, averaged over 90 min: 123±67%
Living monkey eye; LAT-B 4.0 μg Top, n=5
  PRxf (final post-drug) facility, LAT-B eye: 2.03 ± 0.31 μl min^−1 mmHg^−1
  PRxf facility, LAT-B/Veh: 3.92 ± 0.58^∥
  PRxf/BLf, LAT-B eye: 6.19 ± 0.48
  PRxf/BLf, LAT-B/Veh: 3.69 ± 0.55^∥
  PRxf/PRxi, LAT-B eye: 3.16 ± 1.08
  PRxf/PRxi, LAT-B/Veh: 1.80 ± 0.53
  PRxi (first post-drug) facility, LAT-B eye: 0.98 ± 0.27 μl min^−1 mmHg^−1
  PRxi facility, LAT-B/Veh: 3.19 ± 1.16
  PRxi/BLf, LAT-B eye: 3.03 ± 0.94
  PRxi/BLf, LAT-B/Veh: 2.73 ± 0.73
Living monkey eye; [5]
  (LAT-B/BL)/(Veh/BL): 3.68
  Facility LAT-B/Vehicle: 4.49
  Facility, LAT-B eye: 1.64 μl min^−1 mmHg^−1
Living monkey eye; [6]
  (LAT-B/BL)/(Veh/BL): 4.03
  Facility LAT-B/Vehicle: 4.74
  Facility, LAT-B eye: 2.19 μl min^−1 mmHg^−1
Living monkey eye; [7]
  (LAT-B/BL)/(Veh/BL): 3.68
  Facility LAT-B/Vehicle: 4.22
  Facility, LAT-B eye: 2.11 μl min^−1 mmHg^−1
Living monkey eye; LAT-B 4.0 μg topical, n=5
  facility increase, averaged over 90 min: 272±45%
